The values that follow come from publication PMC7534336, “New classes of potent heparanase inhibitors from ligand-based virtual screening” (Journal of Enzyme Inhibition and Medicinal Chemistry, 2020).

The test has as its target human GS3 heparanase (Homo sapiens, UniProt Q9Y251). Description: fondaparinux assay of heparanase enzymatic activity (WST-1 colorimetric). In kind it is biochemical. The conditions noted are these: for % inhib @25 M ± SD: fixed concentration 25 µM (25 M [sic]); for % inhib @2.5 M ± SD: fixed concentration 2.5 µM (2.5 M [sic]). The text has this: To determine the activity of the heparanase inhibitors, a homogeneous assay based on the cleavage of the synthetic heparin oligosaccharide fondaparinux (Arixtra; Aspen) was used. The assay measures colorimetrically the appearance of the disaccharide product of heparanase-catalysed fondaparinux cleavage using the tetrazolium salt WST-1. The assay was essentially performed as described[39] with minor modifications. Briefly, Nunc 96-well (Thermo Fisher Scientific) plates were pre-treated with a solution of 4% BSA (bovine serum albumin, Sigma-Aldrich) in phosphate-buffered saline containing 0.05% Tween 20 (PBST), for 2 h at 37 °C, and then washed three times with PBST. […] The IC50 value for each compound was calculated by GraphPad software. Finally, the measurements were corrected by subtracting both the reagent background and the inner absorbance value of test compound.
Supporting Table S1 reports the structures of the fifty-five compounds purchased and tested, with information, for each compound, on the database from which it was retrieved, the reference inhibitor used to retrieve it and the similarity value with the reference inhibitor.

Where [1] appears, read: fondaparinux assay on human GS3 heparanase, mean of triplicates, read-out: IC50 (µM) ± SD, heparanase inhibitory activity.
Where [2] appears, read: Table S1, fondaparinux assay on GS3 heparanase, read-out: IC50 (M) ± SD.
[3] abbreviates: fondaparinux assay on human GS3 heparanase, mean of triplicates.

SMILES strings stand for the structures. Values joined by “and” are separate entries in the source; they are usually repeats but may differ in a detail not shown here. Identical values can stand only once. Like-named read-outs stand apart in the source and are kept apart here.

Chain of human GS3 heparanase (Q9Y251 other isoform, or with tags, fused parts or gaps): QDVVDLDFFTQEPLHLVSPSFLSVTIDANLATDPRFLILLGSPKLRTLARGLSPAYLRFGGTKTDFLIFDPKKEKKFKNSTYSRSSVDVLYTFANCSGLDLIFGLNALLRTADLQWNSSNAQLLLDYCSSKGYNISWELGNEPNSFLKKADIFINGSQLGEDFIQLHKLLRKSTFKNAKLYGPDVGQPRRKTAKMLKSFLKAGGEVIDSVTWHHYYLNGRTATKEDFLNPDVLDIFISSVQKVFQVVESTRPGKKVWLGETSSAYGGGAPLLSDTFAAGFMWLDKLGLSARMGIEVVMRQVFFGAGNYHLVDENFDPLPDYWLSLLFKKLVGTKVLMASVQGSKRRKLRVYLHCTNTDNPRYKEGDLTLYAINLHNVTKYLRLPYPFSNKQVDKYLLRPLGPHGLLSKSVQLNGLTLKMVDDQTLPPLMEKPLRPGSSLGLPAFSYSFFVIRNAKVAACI

`O=C(Nc1cccc(C(=O)Nc2ccc(S(=O)(=O)O)c3cc(S(=O)(=O)O)cc(S(=O)(=O)O)c23)c1)Nc1cccc(C(=O)Nc2ccc(S(=O)(=O)O)c3cc(S(=O)(=O)O)cc(S(=O)(=O)O)c23)c1` [Compound 9]: the “% inhib @25 M ± SD” value (Table S1) is listed as “Not active”.
Turning to `O=C(Nc1cccc(C(=O)Nc2cc(C(=O)Nc3ccc(S(=O)(=O)O)c4cc(S(=O)(=O)O)cc(S(=O)(=O)O)c34)ccc2F)c1)Nc1cccc(C(=O)Nc2cc(C(=O)Nc3ccc(S(=O)(=O)O)c4cc(S(=O)(=O)O)cc(S(=O)(=O)O)c34)ccc2F)c1` [Compound 10], under “Table S1”, the “% inhib @2.5 M ± SD” value was 39 ± 3% and the “% inhib @25 M ± SD” value stood at 100 ± 1%.
As a reminder, the IC50 is the concentration that gives 50% inhibition. Consider `O=C(Nc1ccc2c(O)c(N=Nc3ccc(N=Nc4ccc(S(=O)(=O)O)cc4)cc3S(=O)(=O)O)c(S(=O)(=O)O)cc2c1)Nc1ccc2c(O)c(N=Nc3ccc(N=Nc4ccc(S(=O)(=O)O)cc4)cc3S(=O)(=O)O)c(S(=O)(=O)O)cc2c1` [Compound 15], for which, under setting [1], the IC50 was 0.93 ± 0.07 µM.
`COc1cc(N=Nc2cccc(S(=O)(=O)O)c2)ccc1NC(=O)Nc1ccc(N=Nc2ccc(O)c(C(=O)O)c2)cc1` [Compound 17]: under “Table S1”, the “% inhib @2.5 M ± SD” value is on record as 14 ± 2% and the “% inhib @25 M ± SD” value was determined as 95 ± 1%.
The like results for `O=C(Nc1ccc2c(O)c(N=Nc3ccccc3)c(S(=O)(=O)O)cc2c1)Nc1ccc2c(O)c(N=Nc3ccccc3)c(S(=O)(=O)O)cc2c1` [Compound 18] were, in that order, 12 ± 3% and 11 ± 3%.
On to `Nc1ccc2cc(S(=O)(=O)O)cc(O)c2c1N=Nc1ccc(NC(=O)Nc2ccc(N=Nc3c(N)ccc4cc(S(=O)(=O)O)cc(O)c34)c(S(=O)(=O)O)c2)cc1S(=O)(=O)O` [Compound 20], for which the half-maximal inhibitory concentration (IC50) under setting [1] is 1.76 ± 0.23 µM.
Regarding `O=C(Nc1ccc(Br)cc1C(=O)O)c1ccc(Oc2ccc(C(=O)Nc3ccc(Br)cc3C(=O)O)cc2)cc1` [Compound 21], under setting [1], the IC50 is 2.66 ± 0.32 µM.
Take `O=C(Nc1ccccc1Oc1ccc(C(=O)O)c(C(=O)O)c1)c1ccc(Oc2ccc(C(=O)Nc3ccccc3Oc3ccc(C(=O)O)c(C(=O)O)c3)cc2)cc1` [Compound 22]: where the note is “Table S1”, the “% inhib @2.5 M ± SD” value is 21 ± 1% and the “% inhib @25 M ± SD” value is reported as 60 ±1%.
For the compound `O=C(Nc1ccccc1C(=O)O)c1ccc2c(c1)C(=O)N(c1ccc(Oc3ccc(N4C(=O)c5ccc(C(=O)Nc6ccccc6C(=O)O)cc5C4=O)cc3)cc1)C2=O` [Compound 23], for the setting “Table S1”, the “% inhib @25 M ± SD” value came to 96 ± 3%.
As to `O=C(Nc1ccccc1C(=O)O)c1ccc2c(c1)C(=O)N(c1ccc(S(=O)(=O)c3ccc(N4C(=O)c5ccc(C(=O)Nc6ccccc6C(=O)O)cc5C4=O)cc3)cc1)C2=O` [Compound 24], the IC50 under setting [1] came to 1.1 ± 0.13 µM.
As for `O=C(O)c1ccc2c(c1)C(=O)N(NC(=O)c1ccc(Oc3ccc(C(=O)NN4C(=O)c5ccc(C(=O)O)cc5C4=O)cc3)cc1)C2=O` [Compound 25], where the note is “Table S1”, the “% inhib @25 M ± SD” value is “Not active”.
As to `O=C(O)c1cc(C(=O)O)cc(N2C(=O)c3ccc(C(=O)c4ccc5c(c4)C(=O)N(c4cc(C(=O)O)cc(C(=O)O)c4)C5=O)cc3C2=O)c1` [Compound 26], for the setting “Table S1”, the “% inhib @2.5 M ± SD” value was 35 ± 1% and the “% inhib @25 M ± SD” value amounted to 99 ± 6%.
For `O=C(O)c1ccc(Oc2ccc3c(c2)C(=O)N(c2ccc(S(=O)(=O)c4ccc(N5C(=O)c6ccc(Oc7ccc(C(=O)O)cc7)cc6C5=O)cc4)cc2)C3=O)cc1` [Compound 27], in that order: “Not active” and 70 ± 6%.
The like results for `Cc1c(NS(=O)(=O)c2cc(C(=O)Nc3ccc(-c4nc5ccccc5[nH]4)cc3)ccc2Cl)c(=O)n(-c2ccccc2)n1C` [Compound 28] were, in that order, 14 ± 6% and 59 ± 5%.
As to `COc1cc(C(=O)Nc2ccc(-c3nc4cc(NC(=O)c5cc(OC)c(OC)c(OC)c5)ccc4[nH]3)cc2)cc(OC)c1OC` [Compound 30], for the setting “Table S1”, the “% inhib @2.5 M ± SD” value amounted to 11 ± 4% and the “% inhib @25 M ± SD” value came to 1 ± 1%.
The like results for `O=C(CSc1nc2ccccc2[nH]1)Nc1ccc(-c2nc3cc(NC(=O)CSc4nc5ccccc5[nH]4)ccc3o2)cc1` [Compound 33] were, in that order, 36 ± 5% and 58 ± 1%.
On to `O=C(O)c1ccc(Oc2ccc3c(c2)C(=O)N(c2ccc(Oc4ccc(N5C(=O)c6ccc(Oc7ccc(C(=O)O)cc7)cc6C5=O)cc4)cc2)C3=O)cc1` [Compound 34], for which, under setting [1], the 50% inhibitory concentration (IC50) was 3.15 ± 0.28 µM.
On the same count and under the same terms, the value for `O=C(O)/C=C/C(=O)Nc1ccc(Sc2ccc(Oc3ccc(Sc4ccc(NC(=O)/C=C/C(=O)O)cc4)cc3)cc2)cc1` [Compound 35] was 0.52 ± 0.02 µM; that for `O=C(O)c1ccc(Oc2cccc(N3C(=O)c4ccc(Oc5ccc6c(c5)C(=O)N(c5cccc(Oc7ccc(C(=O)O)c(C(=O)O)c7)c5)C6=O)cc4C3=O)c2)cc1C(=O)O` [Compound 36] was 0.63 ± 0.01 µM.
With `O=C(O)COc1ccc(N2C(=O)c3ccc(Oc4ccc5c(c4)C(=O)N(c4ccc(OCC(=O)O)cc4)C5=O)cc3C2=O)cc1` [Compound 37], the IC50 under setting [2] is more than 5 µM.
On the same count and under the same terms, next, `O=C(Nc1cccc(-c2nc3ccccc3s2)c1)c1ccc(Oc2ccc(C(=O)Nc3cccc(-c4nc5ccccc5s4)c3)cc2)cc1` [Compound 38]: 5.75 ± 0.05 µM.
As to `O=C(Nc1ccc(-c2nc3ccccc3o2)cc1)c1ccc(Oc2ccc(C(=O)Nc3ccc(-c4nc5ccccc5o4)cc3)cc2)cc1` [Compound 39], under “Table S1”, the “% inhib @2.5 M ± SD” value came out at 60 ± 21% and the “% inhib @25 M ± SD” value was 63 ± 16%.
`O=C(Nc1cccc(C(=O)c2ccccc2)c1)c1ccc(Oc2ccc(C(=O)Nc3cccc(C(=O)c4ccccc4)c3)cc2)cc1` [Compound 40]: the 50% inhibitory concentration (IC50) under setting [2] was more than 5 µM.
Turning to `O=C(Nc1nc(-c2ccc3ccccc3c2)cs1)c1ccc(Oc2ccc(C(=O)Nc3nc(-c4ccc5ccccc5c4)cs3)cc2)cc1` [Compound 41], for the setting “Table S1”, the “% inhib @2.5 M ± SD” value was 54 ± 6% and the “% inhib @25 M ± SD” value amounted to 76 ± 2%.
For `O=C(Nc1nc(-c2ccc(F)cc2)cs1)c1ccc(Oc2ccc(C(=O)Nc3nc(-c4ccc(F)cc4)cs3)cc2)cc1` [Compound 43], in that order: 44 ± 1% and 67 ± 4%.
`O=C(Nc1ccc(Oc2ccc(NC(=O)c3ccc4c(c3)C(=O)N(c3nccs3)C4=O)cc2)cc1)c1ccc2c(c1)C(=O)N(c1nccs1)C2=O` [Compound 44]: where the note is “Table S1”, the “% inhib @2.5 M ± SD” value is on record as 62 ± 2% and the “% inhib @25 M ± SD” value was 60 ± 5%.
The like results for `O=C(Nc1c[nH]c(=O)[nH]c1=O)c1ccc2c(c1)C(=O)N(c1ccc(Oc3ccc(N4C(=O)c5ccc(C(=O)Nc6c[nH]c(=O)[nH]c6=O)cc5C4=O)cc3)cc1)C2=O` [Compound 45] were, in that order, 41 ± 3% and 67 ± 4%.
With `O=C(Nc1cccc(Oc2ccc(S(=O)(=O)c3ccc(Oc4cccc(NC(=O)c5ccc(F)cc5)c4)cc3)cc2)c1)c1ccc(F)cc1` [Compound 46], the IC50 under setting [2] is more than 5 µM.
Consider `O=C(Nc1ccc(Sc2ccc(Oc3ccc(Sc4ccc(NC(=O)c5cccc(F)c5)cc4)cc3)cc2)cc1)c1cccc(F)c1` [Compound 47], for which, where the note is “Table S1”, the “% inhib @2.5 M ± SD” value is on record as 30 ± 3% and the “% inhib @25 M ± SD” value was 66 ± 5%.
As for `CC(C)(c1ccc(Oc2ccc3c(c2)C(=O)N(c2cccc(C(=O)O)c2)C3=O)cc1)c1ccc(Oc2ccc3c(c2)C(=O)N(c2cccc(C(=O)O)c2)C3=O)cc1` [Compound 48], under setting [3], the “IC50 (µM) ± SD, heparanase inhibitory activity” value is “significant inhibitory potencies”. Also, the IC50 under setting [1] was found to be 0.91 ± 0.1 µM.
Regarding `CC(C)(c1ccc(Oc2ccc3c(c2)C(=O)N(c2ccc(C(=O)O)cc2)C3=O)cc1)c1ccc(Oc2ccc3c(c2)C(=O)N(c2ccc(C(=O)O)cc2)C3=O)cc1` [Compound 49], the “IC50 (µM) ± SD, heparanase inhibitory activity” value under setting [3] is “significant inhibitory potencies”. The IC50 under setting [1] worked out at 2.35 ± 0.23 µM.
`O=C(O)c1cc(NC(=O)c2ccc(Oc3ccc(C(=O)Nc4cc(C(=O)O)cc(C(=O)O)c4)cc3)cc2)cc(C(=O)O)c1` [Compound 50]: under setting [3], the “IC50 (µM) ± SD, heparanase inhibitory activity” value is recorded as “good inhibitory potencies”. For the same compound, the IC50 under setting [1] stood at 2.01 ± 0.13 µM.
Take `O=C(Nc1ccc(O)cc1C(=O)O)c1ccc(Oc2ccc(C(=O)Nc3ccc(O)cc3C(=O)O)cc2)cc1` [Compound 51]: where the note is “Table S1”, the “% inhib @2.5 M ± SD” value turned out to be 42 ± 6% and the “% inhib @25 M ± SD” value was found to be 77 ± 4%.
For `O=C(O)c1cc(NC(=O)c2ccc(S(=O)(=O)c3ccc(C(=O)Nc4cc(C(=O)O)cc(C(=O)O)c4)cc3)cc2)cc(C(=O)O)c1` [Compound 52], in that order: 45 ± 7% and 54 ± 8%.
`O=C(Nc1ccc(O)cc1C(=O)O)c1ccc(S(=O)(=O)c2ccc(C(=O)Nc3ccc(O)cc3C(=O)O)cc2)cc1` [Compound 53]: the IC50 under setting [2] worked out at 5.29 ± 0.84 µM. Under setting [3], the “IC50 (µM) ± SD, heparanase inhibitory activity” value was “good inhibitory potencies”.
Regarding `O=C(O)c1cccc(NC(=O)c2ccc(S(=O)(=O)c3ccc(C(=O)Nc4cccc(C(=O)O)c4)cc3)cc2)c1` [Compound 54], under “Table S1”, the “% inhib @2.5 M ± SD” value turned out to be 22 ± 7% and the “% inhib @25 M ± SD” value worked out at 72 ± 1%.
The like results for `O=C(O)c1ccc(NC(=O)c2ccc(S(=O)(=O)c3ccc(C(=O)Nc4ccc(C(=O)O)cc4)cc3)cc2)cc1` [Compound 55] were, in that order, 30 ± 4% and 43 ± 7%.
For `O=C(O)CCC(=O)Nc1ccc(Oc2ccc(S(=O)(=O)c3ccc(Oc4ccc(NC(=O)CCC(=O)O)cc4)cc3)cc2)cc1` [Compound 56], in that order: 20 ± 5% and 51 ± 5%.
For the compound `O=C(O)c1ccccc1N1C(=O)c2ccc(Oc3ccc(Oc4ccc5c(c4)C(=O)N(c4ccccc4C(=O)O)C5=O)cc3)cc2C1=O` [Compound 58], the concentration for half-maximal inhibition (IC50) under setting [1] was < 5 µM and 3.78 µM.
